ChEMBL document CHEMBL1909046, “DrugMatrix in vitro pharmacology data”

Tests used:
[1] = target: Kappa-type opioid receptor (Homo sapiens, UniProt P41145); assay: DRUGMATRIX: Opiate kappa (OP2, KOP) radioligand binding (ligand: [3H] Diprenorphine); type: cell membranes, HEK293, Membrane; conditions: hek293; Not Active = under 50% inhibition at 10 µM
[2] = DRUGMATRIX: ATPase, Na+/K+ enzyme inhibition (substrate: ATP); type: tissue-based, Sus scrofa, Heart; conditions: Not Active = under 50% inhibition at 10 µM
[3] = DRUGMATRIX: Interleukin IL-1 radioligand binding (ligand: [125I] interleukin 1beta); type: cell membranes, Membrane; conditions: nih3t3; Not Active = under 50% inhibition at 10 µM
Substance-P receptor = Substance-P receptor (Homo sapiens, UniProt P25103); type: cell membranes, CHO, Membrane; conditions: cho; also: in other assays of this panel Not Active means under 50% inhibition at 10 µM
Chain of Substance-P receptor (P25103 whole entry): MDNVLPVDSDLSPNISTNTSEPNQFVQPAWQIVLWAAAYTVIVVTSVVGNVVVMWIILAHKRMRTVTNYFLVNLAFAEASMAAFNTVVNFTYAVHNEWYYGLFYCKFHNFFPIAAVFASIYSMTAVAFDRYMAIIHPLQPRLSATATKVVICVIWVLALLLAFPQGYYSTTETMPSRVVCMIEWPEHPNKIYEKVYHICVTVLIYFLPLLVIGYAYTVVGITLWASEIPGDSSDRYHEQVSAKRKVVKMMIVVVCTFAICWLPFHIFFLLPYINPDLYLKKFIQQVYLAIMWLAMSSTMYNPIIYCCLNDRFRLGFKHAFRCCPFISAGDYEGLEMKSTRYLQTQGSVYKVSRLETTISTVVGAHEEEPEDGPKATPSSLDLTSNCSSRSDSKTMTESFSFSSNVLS

Adenosine receptor A2a = Adenosine receptor A2a (Homo sapiens, UniProt P29274); assay: DRUGMATRIX: Adenosine A2A radioligand binding (ligand: […]); type: cell membranes, HEK293, Membrane; conditions: hek293; Not Active = under 50% inhibition at 10 µM
Chain of Adenosine receptor A2a (P29274 whole entry): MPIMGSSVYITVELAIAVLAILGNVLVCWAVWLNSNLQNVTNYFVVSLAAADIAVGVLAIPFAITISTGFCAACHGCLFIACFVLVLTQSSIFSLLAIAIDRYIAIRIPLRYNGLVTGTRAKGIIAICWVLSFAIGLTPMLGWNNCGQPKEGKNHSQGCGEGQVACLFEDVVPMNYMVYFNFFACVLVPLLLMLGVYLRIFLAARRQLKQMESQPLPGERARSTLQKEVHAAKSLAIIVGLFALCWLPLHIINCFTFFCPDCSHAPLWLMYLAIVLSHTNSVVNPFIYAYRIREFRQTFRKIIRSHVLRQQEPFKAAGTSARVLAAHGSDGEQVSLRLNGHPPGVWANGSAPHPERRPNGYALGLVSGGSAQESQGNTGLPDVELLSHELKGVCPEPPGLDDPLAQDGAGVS

[4] = DRUGMATRIX: Leukotriene, BLT (LTB4) radioligand binding (ligand: [3H]LTB4); type: cell membranes, Membrane; conditions: u-937; Not Active = under 50% inhibition at 10 µM
[5] = target: T1, Amine oxidase [flavin-containing] A (Homo sapiens, UniProt P21397); assay: DRUGMATRIX: Monoamine Oxidase MAO-A enzyme inhibition (substrate: Kynuramine); parameters: species or system BTI-TN-5B1-4; conditions: bti-tn-5b1-4; Not Active = under 50% inhibition at 10 µM
T1 sequence (P21397 whole entry): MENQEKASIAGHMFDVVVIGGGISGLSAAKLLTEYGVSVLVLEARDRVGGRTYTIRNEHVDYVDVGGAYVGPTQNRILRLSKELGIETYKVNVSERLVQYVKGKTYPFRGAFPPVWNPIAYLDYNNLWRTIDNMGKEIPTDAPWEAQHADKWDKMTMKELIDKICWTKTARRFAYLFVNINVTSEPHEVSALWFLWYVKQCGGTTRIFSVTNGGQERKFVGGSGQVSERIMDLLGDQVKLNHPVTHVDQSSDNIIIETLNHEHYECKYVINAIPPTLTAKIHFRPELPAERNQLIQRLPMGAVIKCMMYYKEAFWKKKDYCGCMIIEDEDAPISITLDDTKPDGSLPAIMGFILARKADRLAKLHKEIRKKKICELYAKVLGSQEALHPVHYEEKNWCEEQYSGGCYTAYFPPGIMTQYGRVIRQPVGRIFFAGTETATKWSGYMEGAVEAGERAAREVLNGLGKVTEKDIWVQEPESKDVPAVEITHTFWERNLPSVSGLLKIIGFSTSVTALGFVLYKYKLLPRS

[6] = target: Delta-type opioid receptor (Homo sapiens, UniProt P41143); type: cell membranes, HEK293, Membrane; conditions: hek293; also: in other assays of this panel Not Active means under 50% inhibition at 10 µM
Chain of Delta-type opioid receptor (P41143 whole entry): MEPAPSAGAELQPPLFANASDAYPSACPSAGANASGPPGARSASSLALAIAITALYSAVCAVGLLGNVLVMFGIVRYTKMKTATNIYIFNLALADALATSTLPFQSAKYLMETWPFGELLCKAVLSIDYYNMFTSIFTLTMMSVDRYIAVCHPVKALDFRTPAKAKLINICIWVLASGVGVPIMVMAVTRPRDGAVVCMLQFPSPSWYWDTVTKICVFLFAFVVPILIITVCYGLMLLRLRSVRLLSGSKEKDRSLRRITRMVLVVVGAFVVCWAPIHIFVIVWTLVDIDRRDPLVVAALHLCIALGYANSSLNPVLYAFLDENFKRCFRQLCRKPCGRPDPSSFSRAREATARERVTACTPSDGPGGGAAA

[7] = target: T2, C-X-C chemokine receptor type 2 (Homo sapiens, UniProt P25025); type: cell membranes, Membrane; conditions: cho-k1; also: in other assays of this panel Not Active means under 50% inhibition at 10 µM
T2 sequence (P25025 whole entry): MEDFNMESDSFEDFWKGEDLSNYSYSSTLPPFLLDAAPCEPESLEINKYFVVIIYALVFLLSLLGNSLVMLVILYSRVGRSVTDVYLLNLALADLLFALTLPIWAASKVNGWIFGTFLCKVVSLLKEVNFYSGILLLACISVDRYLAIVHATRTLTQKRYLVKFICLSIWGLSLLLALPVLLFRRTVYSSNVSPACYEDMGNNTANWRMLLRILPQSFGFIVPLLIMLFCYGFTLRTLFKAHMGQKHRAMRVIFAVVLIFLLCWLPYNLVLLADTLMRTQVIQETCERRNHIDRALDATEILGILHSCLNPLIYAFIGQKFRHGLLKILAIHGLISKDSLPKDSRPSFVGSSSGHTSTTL

[8] = DRUGMATRIX: Phosphodiesterase PDE3 enzyme inhibition (substrate: [3H]cAMP + cAMP); type: tissue-based, Homo sapiens; conditions: platelet; Not Active = under 50% inhibition at 10 µM
[9] = DRUGMATRIX: Phosphodiesterase PDE4 enzyme inhibition (substrate: [3H]cAMP + cAMP); conditions: u-937; Not Active = under 50% inhibition at 10 µM
[10] = DRUGMATRIX: Calcium Channel Type L, Dihydropyridine radioligand binding (ligand: [3H] Nitrendipine); type: cell membranes, Rattus norvegicus, Wistar, Cerebral cortex, Membrane; conditions: Not Active = under 50% inhibition at 10 µM

Chain of Kappa-type opioid receptor (P41145 whole entry): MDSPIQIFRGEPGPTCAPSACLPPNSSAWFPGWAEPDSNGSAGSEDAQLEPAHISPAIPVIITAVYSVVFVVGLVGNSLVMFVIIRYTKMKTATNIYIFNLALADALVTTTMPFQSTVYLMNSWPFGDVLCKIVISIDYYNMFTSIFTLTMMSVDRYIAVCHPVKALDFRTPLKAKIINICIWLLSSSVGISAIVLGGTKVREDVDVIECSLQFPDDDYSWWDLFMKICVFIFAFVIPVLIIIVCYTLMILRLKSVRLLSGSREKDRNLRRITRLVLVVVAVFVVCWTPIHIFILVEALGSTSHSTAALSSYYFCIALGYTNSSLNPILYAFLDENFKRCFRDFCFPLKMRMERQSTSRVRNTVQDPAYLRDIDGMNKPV

CC(=O)OCC(=O)[C@@]1(OC(C)=O)[C@@H](C)C[C@H]2[C@@H]3C[C@H](F)C4=CC(=O)C=C[C@]4(C)[C@@]3(F)[C@@H](O)C[C@@]21C [DIFLORASONE DIACETATE]
Not Active: IC50 [1] | IC50 [2] | Ki [2] | IC50 [3] | Ki [3] | IC50 (Substance-P receptor) | IC50 (Adenosine receptor A2a) | IC50 [4] | Ki [4] | IC50 [5] | IC50 [6] | IC50 [7] | IC50 [8] | Ki [8] | IC50 [9] | Ki [9] | IC50 [10] | Ki [10]

CCc1cccc2c3c([nH]c12)C(CC)(CC(=O)O)OCC3 (centres undefined) [ETODOLAC]
Not Active: IC50 [1] | IC50 [2] | Ki [2] | IC50 [3] | Ki [3] | IC50 (Substance-P receptor) | IC50 (Adenosine receptor A2a) | IC50 [4] | Ki [4] | IC50 [5] | IC50 [6] | IC50 [7] | IC50 [8] | Ki [8] | IC50 [9] | Ki [9] | IC50 [10] | Ki [10]

CC(=O)[C@@]1(O)CC[C@H]2[C@@H]3C[C@H](C)C4=CC(=O)C=C[C@]4(C)[C@@]3(F)[C@@H](O)C[C@@]21C [FLUOROMETHOLONE]
Not Active: IC50 [1] | IC50 [2] | Ki [2] | IC50 [3] | Ki [3] | IC50 (Substance-P receptor) | IC50 (Adenosine receptor A2a) | IC50 [4] | Ki [4] | IC50 [5] | IC50 [6] | IC50 [7] | IC50 [8] | Ki [8] | IC50 [9] | Ki [9] | IC50 [10] | Ki [10]

CC1(C)[C@@H](O[C@H]2O[C@H](C(=O)O)[C@@H](O)[C@H](O)[C@H]2O[C@@H]2O[C@H](C(=O)O)[C@@H](O)[C@H](O)[C@H]2O)CC[C@]2(C)[C@H]3C(=O)C=C4[C@@H]5C[C@@](C)(C(=O)O)CC[C@]5(C)CC[C@@]4(C)[C@]3(C)CC[C@@H]12 [GLYCYRRHIZIN]
Not Active: IC50 [1] | IC50 [2] | Ki [2] | IC50 [3] | Ki [3] | IC50 (Substance-P receptor) | IC50 (Adenosine receptor A2a) | IC50 [4] | Ki [4] | IC50 [5] | IC50 [6] | IC50 [7] | IC50 [8] | Ki [8] | IC50 [9] | Ki [9] | IC50 [10] | Ki [10]

CN1CCC[C@H]1c1cccnc1 [NICOTINE]
Not Active: IC50 [1] | IC50 [2] | Ki [2] | IC50 [3] | Ki [3] | IC50 (Substance-P receptor) | IC50 (Adenosine receptor A2a) | IC50 [4] | Ki [4] | IC50 [5] | IC50 [6] | IC50 [7] | IC50 [8] | Ki [8] | IC50 [9] | Ki [9] | IC50 [10] | Ki [10]

CC1COc2c(N3CCN(C)CC3)c(F)cc3c(=O)c(C(=O)O)cn1c23 (centres undefined) [OFLOXACIN]
Not Active: IC50 [1] | IC50 [2] | Ki [2] | IC50 [3] | Ki [3] | IC50 (Substance-P receptor) | IC50 (Adenosine receptor A2a) | IC50 [4] | Ki [4] | IC50 [5] | IC50 [6] | IC50 [7] | IC50 [8] | Ki [8] | IC50 [9] | Ki [9] | IC50 [10] | Ki [10]

Oc1cccc2cccnc12 [OXYQUINOLINE]
Not Active: IC50 [1] | IC50 [2] | Ki [2] | IC50 [3] | Ki [3] | IC50 (Substance-P receptor) | IC50 (Adenosine receptor A2a) | IC50 [4] | Ki [4] | IC50 [5] | IC50 [6] | IC50 [7] | IC50 [8] | Ki [8] | IC50 [9] | Ki [9] | IC50 [10] | Ki [10]

CCCc1cc(=O)[nH]c(=S)[nH]1 [PROPYLTHIOURACIL]
Not Active: IC50 [1] | IC50 [2] | Ki [2] | IC50 [3] | Ki [3] | IC50 (Substance-P receptor) | IC50 (Adenosine receptor A2a) | IC50 [4] | Ki [4] | IC50 [5] | IC50 [6] | IC50 [7] | IC50 [8] | Ki [8] | IC50 [9] | Ki [9] | IC50 [10] | Ki [10]
